Test results from article PMC9258321, “Structure-guided design of CPPC-paired disulfide-rich peptide libraries for ligand and drug discovery” (Chemical Science, 2022).
Bridge positions count the residues as written; N and C are the ends. Peptide text beside a SMILES is read from it. * marks the point of attachment. FITC = O=C1OC2(c3ccc(O)cc3Oc3cc(O)ccc32)c2ccc(NC(=S)*)cc21; βAla = NCCC(=O)O

Columns and labels:
CD28 [1] = target: T1, CD28 (Homo sapiens, UniProt P10747); assay: FP assay: CD80 added to premixed oxidized FITC-drp8 and CD28; assay type: binding; settings: CD80 50-500 nM added to 25 nM oxidized FITC-drp8 and 100 nM CD28, PBS pH 7.4, 20 min room temperature, Fig. S22
T1 construct: purchased Sino Biological 11524-HCCH
T1 sequence (P10747 19-220): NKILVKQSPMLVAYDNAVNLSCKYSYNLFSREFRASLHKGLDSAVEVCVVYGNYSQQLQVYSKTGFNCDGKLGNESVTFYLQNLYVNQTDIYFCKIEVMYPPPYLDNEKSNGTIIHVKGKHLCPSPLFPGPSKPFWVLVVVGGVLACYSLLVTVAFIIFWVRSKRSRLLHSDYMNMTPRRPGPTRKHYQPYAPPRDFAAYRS
Experimental: (§1) min incubation at room temperature, the fluorescence anisotropies were measured using a plate reader (Eex= 485 nm, Eem=535 nm). All of the measurements were recorded in triplicate. In the fluorescence polarization assay s measuring the binding of reduced FITC-drp8 to CD28 and the binding of oxidized FITC-drp8 to CTLA-4, the fluorescence anisotrop ies were recorded in the same way as described above.
(§2) Dissociation constants ( KD) were determined by nonlinear regression analysis of anisotrop ies versus the concentrations of the protein using the following equation: […]
(§3) Y = A1 + (A2 − A1) × { 2×C } (1)
(§4) X: the concentration of protein, Y: the measured fluorescence anisotropy, C: the concentration of fluores-cent peptide, A1: the bottom plateaus of anisotropy, A2: the anisotropy signal in the presence of saturating concentrations of CD28, KD: the dissociation constant.
(§5) (b) Competition fluorescence polarization assay. The binding of drp8 to CD28 was measured by adding dilutions of drp8 to premixed oxidized FITC-drp8 and CD28 in PBS (pH 7.4). […] After 10 min incubation at room temperature, the plate was read using a plate reader (Eex= 485 nm, Eem = 535 nm). In the competition fluorescence polarization assay measuring the binding of drp1, drp7 and drp9 to CD28, the fluorescence anisotropies were recorded in the same way as described above. […]

CTLA-4 = assay: Fluorescence polarization binding assay to CTLA-4; settings: FP assay, oxidized fluorescein-labeled peptide; Fig. S23
Experimental: as §1, §2, §3, §4, §5

CD28 [2] = target: T1, CD28; assay: Competition fluorescence polarization assay with oxidized FITC-drp8 as probe; assay type: binding; settings: FP competition with oxidized FITC-drp8; negative control
Experimental: as §1, §2, §3, §4, §5

[3] = tested on: CD28 expressed on the surface of HEK293T cells; assay: Laser confocal cell imaging, labeling CD28 on HEK293T cells; assay type: cell-based; settings: HEK293T cells transfected with mCherry-CD28 vs mCherry control; 1 μM peptide in DMEM, 30 min, washed; confocal colocalization
Experimental: Finally, we examined the specific binding capability of drp8 to CD28 expressed on the surface of the cells. HEK293T cells transfected with a plasmid expressing the extracellular domain of CD28 fused with an extracellular-targeting signaling sequence, a fluorescent mCherry tag, and a transmembrane domain was constructed for the experiments. Briefly, the transfected cells were incubated with the fluorescein-labeled drp8 for 30 min, followed by washing with culture media to remove the unbound peptide. Confocal fluorescence images were then recorded (Fig. 5d), showing the colocalization of fluorescence from the mCherry tag and the labeled peptide.
Surface plasmon resonance (SPR) assay
The affinity of peptides to Keap1 was measured using Biacore T200 (GE healthcare) at 25℃. […]
NMR samples were dissolved in 80% perdeuterated acetonitrile and 20% H2O for drp1, 75% perdeu-terated acetonitrile and […] for drp2-a, 60% perdeuterated acetonitrile and 40% H2O for drp8, 50% perdeuterated acetonitrile and 50% H2O for drp3 and drp6, 40% perdeuterated acetonitrile and 60% H2O for drp2-b and drp4 (The solution conditions depend on the dispersion of cross -peaks). […] Two dimensional (2D) 1H, 15N/13C HSQC spectra were recorded to obtain chemical shifts of heavy atoms in backbone and side-chains. […]

CC(C)C[C@@H]1NC(=O)CNC(=O)[C@H](CCC(=O)O)NC(=O)[C@@H]2CSSC[C@H](NC(=O)[C@H](CC(N)=O)NC(=O)[C@H](CC(N)=O)NC1=O)C(=O)N[C@@H](Cc1c[nH]c3ccccc13)C(=O)N[C@@H](Cc1ccccc1)C(=O)N[C@@H](C(C)C)C(=O)N[C@@H](CCC(=O)O)C(=O)N[C@@H](C)C(=O)N[C@H]1CSSC[C@H](NC(=O)CN)C(=O)N3CCC[C@H]3C(=O)N3CCC[C@H]3C(=O)N[C@@H](CSSC[C@@H](C(N)=O)NC(=O)[C@@H]3CCCN3C(=O)[C@@H]3CCCN3C1=O)C(=O)N1CCC[C@H]1C(=O)N[C@@H](CCCNC(=N)N)C(=O)N[C@@H](CCC(=O)O)C(=O)N[C@@H](Cc1c[nH]cn1)C(=O)N[C@@H](CCC(=O)O)C(=O)N[C@@H](CC(C)C)C(=O)N[C@@H](C(C)C)C(=O)N[C@@H](C)C(=O)N[C@@H](C(C)C)C(=O)N1CCC[C@H]1C(=O)N2 [drp8] (H-GCPPCPREHELVAVPCEGLNNCWFVEACPPC-NH2; disulfide 2-28, 5-31, 16-22) was tested, and the “competition with CD80 for CD28 (in words)” value (CD28 [1]) was “capable of blocking the CD80 and CD28 interaction” and the “binding affinity to CTLA4 (in words)” value (CTLA-4) was “negligible binding affinity”.

In the case of “H-CPPCHGRPTCDSFTNCWELLTCPPC-NH2 (also: bicyclic or more (positions not given here)) [drp1, template and negative control for CD28]”, the “binding to CD28 in competition assay (in words)” value (CD28 [2]) is reported as “negligibly binds with CD28”.

In the case of CC(C)C[C@@H]1NC(=O)CNC(=O)[C@H](CCC(=O)O)NC(=O)[C@@H]2CSSC[C@H](NC(=O)[C@H](CC(N)=O)NC(=O)[C@H](CC(N)=O)NC1=O)C(=O)N[C@@H](Cc1c[nH]c3ccccc13)C(=O)N[C@@H](Cc1ccccc1)C(=O)N[C@@H](C(C)C)C(=O)N[C@@H](CCC(=O)O)C(=O)N[C@@H](C)C(=O)N[C@H]1CSSC[C@H](NC(=O)CNC(=O)CCNC(=S)Nc3ccc4c(c3)C(=O)OC43c4ccc(O)cc4Oc4cc(O)ccc43)C(=O)N3CCC[C@H]3C(=O)N3CCC[C@H]3C(=O)N[C@@H](CSSC[C@@H](C(N)=O)NC(=O)[C@@H]3CCCN3C(=O)[C@@H]3CCCN3C1=O)C(=O)N1CCC[C@H]1C(=O)N[C@@H](CCCNC(=N)N)C(=O)N[C@@H](CCC(=O)O)C(=O)N[C@@H](Cc1c[nH]cn1)C(=O)N[C@@H](CCC(=O)O)C(=O)N[C@@H](CC(C)C)C(=O)N[C@@H](C(C)C)C(=O)N[C@@H](C)C(=O)N[C@@H](C(C)C)C(=O)N1CCC[C@H]1C(=O)N2 [FITC-drp8] ({FITC-βAla}-GCPPCPREHELVAVPCEGLNNCWFVEACPPC-NH2; disulfide 2-28, 5-31, 16-22), the “binding to CD28 on the cell surface (in words)” value [3] is reported as “can specifically bind with CD28 on the live cell surface”.
